Results from US20220273829A1, “RADIOLABELED SUGARS FOR IMAGING OF FUNGAL INFECTIONS” (THE UNITED STATES OF AMERICA, as represented by the …, priority 2019, published 2022).
“Also recorded” adds a separate entry of the source. Read-outs that look alike come from different tables or passages of the source.

What was measured:
A. fumigatus = assay: In vitro uptake of radiolabeled sugar in fungal cultures (retained radioactivity after incubation and washing); format: cell-based, Aspergillus fumigatus
Experimental: (§1) The inventors identified sugars and other molecules involved in the metabolic pathways of clinically-relevant fungal infections, and generated radiolabeled versions (3H or 14C) that were tested for in vitro uptake in bacteria (gram-negative, gram-positive, Pseudomonas aeruginosa), macrophages (J774 cell line) and m clinically-relevant fungal strains including Aspergillus, Rhizomucor, Cryptococcus and Candida albicans. Organisms and cells were exposed to the radiolabeled compounds and the in vitro uptake was measured (retained radioactivity after incubation and washing of the cultures measured using a beta counter). […] For the biodistribution and autoradiography studies showing specific uptake of the radioactive molecules by fungal-infected animals (i.e., retained radioactivity in the lungs in the infected animals but not in the control animals), the ligand(s) specific for each type of fungi was radiolabeled with 18F or other PET isotopes. Using the radiolabeled ligand(s), live PET imaging is performed on infected mice using a microPET/CT scanner. […] The images are reconstructed and analyzed using special software. […]
(§2) In vitro studies using ^3H-cellobiose were performed with measurement of retained radioactivity after incubation and washing of the cultures using a beta counter.

bacteria [1] = assay: In vitro uptake of radiolabeled sugar in bacterial cultures; format: cell-based, E. coli, S. aureus; details: FIGS. 1B-1C
Experimental: The inventors identified sugars and other molecules involved in the metabolic pathways of clinically-relevant fungal infections, and generated radiolabeled versions (3H or 14C) that were tested for in vitro uptake in bacteria (gram-negative, gram-positive, Pseudomonas aeruginosa), macrophages (J774 cell line) and m clinically-relevant fungal strains including Aspergillus, Rhizomucor, Cryptococcus and Candida albicans. Organisms and cells were exposed to the radiolabeled compounds and the in vitro uptake was measured (retained radioactivity after incubation and washing of the cultures measured using a beta counter). […] For the biodistribution and autoradiography studies showing specific uptake of the radioactive molecules by fungal-infected animals (i.e., retained radioactivity in the lungs in the infected animals but not in the control animals), the ligand(s) specific for each type of fungi was radiolabeled with 18F or other PET isotopes. Using the radiolabeled ligand(s), live PET imaging is performed on infected mice using a microPET/CT scanner. This is done by injecting the radioactive ligand intravenously through the tail vein and then positioning the animals inside the microPET/CT gantry and obtaining CT scan images as well as PET emission data. The images are reconstructed and analyzed using special software. […]

J774 macrophages [2] = assay: In vitro uptake of radiolabeled sugar in macrophages / mammalian cells; format: cell-based; details: J774 cell line; FIG. 1D, FIG. 4B
Experimental: as §1, §2

[3] = tested on: A. fumigatus-infected lungs (nasopharyngeal model); assay: Organ biodistribution after injection of radiolabeled sugar in Aspergillus-infected mice; format: in vivo, mouse; details: infected vs uninfected controls / sterile lung inflammation, FIG. 2, FIG. 4C
Experimental: as §1, with “isotopes.” for “isotopes. Using the radiolabeled ligand(s), live PET imaging is performed on infected mice using a microPET/CT scanner.”
(§3) ex vivo experiments were performed, including biodistribution (injecting the animals with radiolabeled molecules followed by euthanasia, collection of organs and measurement of radioactivity) and autoradiography (sectioning of lung tissues from injected animals to measure residual radioactivity).

[4] = tested on: A. fumigatus infected mice; assay: Autoradiography of tissue sections from injected infected mice; format: in vivo, mouse; details: lung sections; nasopharyngeal inoculation model; FIG. 1F, FIG. 5A
Experimental: as §1, with “isotopes.” for “isotopes. Using the radiolabeled ligand(s), live PET imaging is performed on infected mice using a microPET/CT scanner.”
as §3, with “radioactivity). […]” for “radioactivity).”

bacteria [5] = details: gram negative and gram positive; Ordonez et al. 2017; cited from earlier work
J774 macrophages [6] = details: Ordonez et al. 2017; cited from earlier work
P. aeruginosa = details: Ordonez et al. 2017; cited from earlier work
[7] = tested on: pulmonary aspergillosis (Aspergillus lung infection); format: in vivo, mouse; details: for PET/CT uptake (SUV) in lungs of infected mice: 60-minute dynamic PET/CT, pulmonary aspergillosis model vs controls and poly (I:C) treated mice
Experimental: The inventors identified sugars and other molecules involved in the metabolic pathways of clinically-relevant fungal infections, and generated radiolabeled versions (3H or 14C) that were tested for in vitro uptake in bacteria (gram-negative, gram-positive, Pseudomonas aeruginosa), macrophages (J774 cell line) and m clinically-relevant fungal strains including Aspergillus, Rhizomucor, Cryptococcus and Candida albicans. Organisms and cells were exposed to the radiolabeled compounds and the in vitro uptake was measured (retained radioactivity after incubation and washing of the cultures measured using a beta counter). […] For the biodistribution and autoradiography studies showing specific uptake of the radioactive molecules by fungal-infected animals (i.e., retained radioactivity in the lungs in the infected animals but not in the control animals), the ligand(s) specific for each type of fungi was radiolabeled with 18F or other PET isotopes. Using the radiolabeled ligand(s), live PET imaging is performed on infected mice using a microPET/CT scanner. This is done by injecting the radioactive ligand intravenously through the tail vein and then positioning the animals inside the microPET/CT gantry and obtaining CT scan images as well as PET emission data. The images are reconstructed and analyzed using special software. To confirm specificity for fungal infection, in vivo uptake of the ligand(s) in animal models of sterile inflammation, as well as models of bacterial infection (gram positive and gram negative bacteria) are performed.
Three main mouse models were developed: (1) Aspergillus lung infection (nasopharyngeal administration of 30 μl suspension of Aspergillus conidia), (2) Aspergillus hematogenous spread (intravenous administration of 100 μl of fungal suspension via the tail vein) and (3) sterile lung inflammation model (induced by nasopharyngeal administration of 50-100 μg of poly (I:C) suspension in 30 μl of sterile PBS; poly(I:C) is a synthetic double stranded RNA which activates Toll-like receptors-3 (TLR3), thereby inducing signaling via multiple inflammatory pathways).
Standardized uptake values (SUVs) of ^18F-L-rhamnose in infected mice were then measured, and compared to animals with sterile lung inflammation (24 hours following post-pharyngeal poly (I:C) administration) and healthy controls.

For `C[C@H](O)[C@H](O)[C@@H](O)[C@@H](O)C=O` [^3H-L-Rhamnose], the “in vitro retention/uptake of 3H-labeled sugar by A. fumigatus” value (A. fumigatus; retained radioactivity after incubation and washing, beta counter, FIG. 1A, FIG. 4A) was “significant retention”, the “in vitro retention of 3H-L-Rhamnose by bacteria” value (bacteria [1]) was “minimal retention” and the “in vitro retention/uptake of 3H-labeled sugar by macrophages (mammalian cells)” value (J774 macrophages [2]) was “minimal retention”. For the same compound, the “biodistribution: uptake in lungs of infected versus control mice” value [3] was “uptake of ^3H-L-Rhamnose in the lungs of infected animals but not in uninfected controls; also recorded: increased uptake in the lungs of infected compared to control mice and mice with sterile lung inflammation” and the “autoradiography: uptake in lungs of infected mice” value [4] was “accumulation of ^3H-L-Rhamnose in the lungs of infected but not uninfected animals”.

For `C[C@H](O)[C@H](O)[C@@H](O)[C@@H](O)C=O` [L-Rhamnose], the “L-Rhamnose uptake in bacteria” value (bacteria [5]) is listed as “low”, the “L-Rhamnose uptake in macrophages” value (J774 macrophages [6]) is listed as “very low” and the “L-Rhamnose uptake in P. aeruginosa” value (P. aeruginosa) is listed as “very low”.

With `C[C@H](O)[C@H](O)[C@@H](O)[C@@H]([18F])C=O` [^18F-L-rhamnose, 2-deoxy-2-[^18F]fluororhamnose] the “in vitro uptake of ^18F-L-rhamnose by A. fumigatus” value (A. fumigatus; live versus heat-killed cultures, FIG. 1E) was “specifically internalized by live A. fumigatus cultures when compared to heat-killed cultures”, the “PET/CT uptake (SUV) in lungs of infected mice” value ([7]; FIG. 3A) was “slight higher uptake in lung lesions compared to controls and poly (I:C) treated mice” and the “PET/CT uptake (SUV) in lungs of infected mice” value ([7]; FIG. 3A, listed as [^18F]-rhamnose) was “Increased uptake is seen in the lungs of nasopharyngeally-infected pulmonary IA (AF NP) mice”. For the same compound, the “PET uptake in lungs of control or sterile lung inflammation mice” value ([7]; control and poly (I:C) mice, averaged 520-3520 seconds post injection, FIG. 3A) was “no appreciable uptake is seen in the lungs of control or sterile lung (poly (I:C)inflammation mice” and the “washout of the ligand (time activity curve)” value ([7]; mouse, in vivo) was “relatively fast washout”.
